The values below come from BindingDB's records for PubMed 35707152 (Max Planck Institute of Colloids and Interfaces, 2022).

The nature of experiment [1]: Binding affinity to DC-SIGN ECD (66 to 404 residue) (unknown origin) expressed in Escherichia coli BL21 assessed as dissociation constant by STD reporter assay based NMR spectroscopy analysis. On the technique in general: Reporter assays use an easily measured gene product as a stand-in for the process of interest.
Experiment [2] in a line: Binding affinity to N-terminal His-tagged DC-SIGN CRD (194 to 331 residues) (unknown origin) expressed in Escherichia coli BL21 assessed as dissociation constant by HSQC-NMR spectrum analysis.

As to `CCOC(=O)c1c[nH]c2ccc(N(C)C)cc2c1=O`, in experiment [1], the Kd worked out at 300 µM.
Still for that read-out and setting: the value for `O=c1c(S(=O)(=O)c2ccccc2)c[nH]c2cc(F)ccc12` was 1900 µM; that for `CCOC(=O)c1c[nH]c2c(C(=O)OCC)cccc2c1=O` was 100 µM.
With `CN(C)C(=O)c1c[nH]c2cc(N(C)C)ccc2c1=O`, the Kd in experiment [2] worked out at 500 µM; in experiment [1], 400 µM.
For the molecule `CN(C)C(=O)c1c[nH]c2ccc(F)cc2c1=O`, the Kd in experiment [1] was 2900 µM.
`CN(C)C(=O)c1c[nH]c2c(F)cccc2c1=O`: the Kd in experiment [2] worked out at 400 µM; in experiment [1], 300 µM.
In the case of `CN(C)C(=O)c1ccc2c(=O)c(S(=O)(=O)c3ccccc3)c[nH]c2c1`, the Kd in experiment [1] was 300 µM.
For the molecule `CCOC(=O)c1cc(=O)c2cccc(F)c2[nH]1`, the results for the Kd in experiment [2] and in experiment [1] were 400 µM and 500 µM, respectively.
For `CCOC(=O)c1cnc2ccccc2c1O`, in that order: 200 µM and 200 µM.
As for `O=C(O)c1c[nH]c2ccc(S(=O)(=O)N3CCCCC3)cc2c1=O`, the equilibrium dissociation constant (Kd) in experiment [1] is 500 µM.
Still for that read-out and setting: the value for `O=C(O)c1cnc2ccccc2c1O` was 2200 µM.
Same read-out and setting: the value for `CCOC(=O)c1cc(=O)c2cccc(C(=O)OCC)c2[nH]1` was 600 µM.

One may read the Kd as the concentration at which binding is half-saturated.
